According to ChEMBL document CHEMBL1201862, “PubChem BioAssay data set” (2004):
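Dose response: 5 concentrations. Exposure: 48 h. Format: 96-well plates. Endpoint: linear interpolation; highest concentration if not reached. At the GI50, growth is halved.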 Activity calls are given as the source filed them. Cut-off read from the data, not from the text of the source: active = GI50 up to about 1.1 µM and inactive = higher.

What was measured:
Experiment in all cases: DTP human tumour cell line panel, 48 h
PC-3 = test system: PC-3
HCC 2998 = test system: HCC 2998
NCI/ADR-RES = test system: NCI/ADR-RES
SF-295 = test system: SF-295
OVCAR-8 = test system: OVCAR-8
A498 = test system: A498
SW-620 = test system: SW-620
OVCAR-4 = test system: OVCAR-4
RXF 393 = test system: RXF 393
HOP-62 = test system: HOP-62
SK-OV-3 = test system: SK-OV-3
UO-31 = test system: UO-31
HT-29 = test system: HT-29
Malme-3M = test system: Malme-3M
UACC-62 = test system: UACC-62
UACC-257 = test system: UACC-257
EKVX = test system: EKVX
KM12 = test system: KM12
MDA-MB-435 = test system: MDA-MB-435
SK-MEL-2 = test system: SK-MEL-2

SMILES	GI50 (PC-3)	GI50 (HCC 2998)	GI50 (NCI/ADR-RES)	GI50 (SF-295)	GI50 (OVCAR-8)	GI50 (A498)	GI50 (SW-620)	GI50 (OVCAR-4)	GI50 (RXF 393)	GI50 (HOP-62)	GI50 (SK-OV-3)	GI50 (UO-31)	GI50 (HT-29)	GI50 (Malme-3M)	GI50 (UACC-62)	GI50 (UACC-257)	GI50 (EKVX)	GI50 (KM12)	GI50 (MDA-MB-435)	GI50 (SK-MEL-2)
CCn1c(CCCc2nc3c(=O)n(C)c(=O)n(C)c3[nH]2)nc2c1c(=O)n(C)c(=O)n2C	> 100 µM (inactive)	> 100 µM (inactive)	> 100 µM (inactive)	> 100 µM (inactive)	> 100 µM (inactive)	> 100 µM (inactive)	> 100 µM (inactive)	> 100 µM (inactive)	> 100 µM (inactive)	> 100 µM (inactive)	> 100 µM (inactive)	> 100 µM (inactive)	> 100 µM (inactive)	> 100 µM (inactive)	> 100 µM (inactive)	> 100 µM (inactive)	43 µM (inactive)	> 100 µM (inactive)	> 100 µM (inactive)	
C/C(=N\Nc1cc(CN2CCCC2)c(-c2ccc(Cl)cc2)nn1)C(=O)O	> 100 µM (inactive)		> 100 µM (inactive)	> 100 µM (inactive)	> 100 µM (inactive)	> 100 µM (inactive)	> 100 µM (inactive)	> 100 µM (inactive)	> 100 µM (inactive)	> 100 µM (inactive)	> 100 µM (inactive)	> 100 µM (inactive)	> 100 µM (inactive)	> 100 µM (inactive)	> 100 µM (inactive)	> 100 µM (inactive)	> 100 µM (inactive)	> 100 µM (inactive)	> 100 µM (inactive)	> 100 µM (inactive)
C/C(Nc1ccc(F)cc1)=C1/CCOC1=O	46.5 µM (inactive)	25.6 µM (inactive)	> 100 µM (inactive)	16.5 µM (inactive)	17.3 µM (inactive)	> 100 µM (inactive)	> 100 µM (inactive)	> 100 µM (inactive)	4.73 µM (inactive)	> 100 µM (inactive)		92.3 µM (inactive)	> 100 µM (inactive)	> 100 µM (inactive)	0.277 µM (active)	> 100 µM (inactive)	> 100 µM (inactive)	1.38 µM (inactive)	2.92 µM (inactive)	
COC(=O)C1(Cc2ccccc2)Cc2ccccc2C1O (stereo unspecified)	> 100 µM (inactive)	> 100 µM (inactive)	> 100 µM (inactive)	> 100 µM (inactive)	> 100 µM (inactive)	> 100 µM (inactive)	> 100 µM (inactive)	29.8 µM (inactive)	50.2 µM (inactive)	> 100 µM (inactive)	> 100 µM (inactive)	62.4 µM (inactive)	> 100 µM (inactive)	> 100 µM (inactive)	> 100 µM (inactive)	> 100 µM (inactive)	65 µM (inactive)	> 100 µM (inactive)	> 100 µM (inactive)	
COc1cc2c(cc1C)NC(=O)/C2=C\c1ccncc1	6.55 µM (inactive)	12.3 µM (inactive)	3.58 µM (inactive)	4.99 µM (inactive)	2.52 µM (inactive)		4.49 µM (inactive)	> 100 µM (inactive)	3.76 µM (inactive)	6.97 µM (inactive)	3.96 µM (inactive)	4.1 µM (inactive)	4.92 µM (inactive)	15.5 µM (inactive)	5.53 µM (inactive)	5.19 µM (inactive)	6.7 µM (inactive)	3.48 µM (inactive)	4.14 µM (inactive)	2.97 µM (inactive)
CC(C)(C)OC(=O)NCCNCCNc1ccccc1	> 100 µM (inactive)	> 100 µM (inactive)	> 100 µM (inactive)	> 100 µM (inactive)	> 100 µM (inactive)		> 100 µM (inactive)	> 100 µM (inactive)	> 100 µM (inactive)	> 100 µM (inactive)	> 100 µM (inactive)	> 100 µM (inactive)	> 100 µM (inactive)	> 100 µM (inactive)	> 100 µM (inactive)	> 100 µM (inactive)	> 100 µM (inactive)	> 100 µM (inactive)	> 100 µM (inactive)	> 100 µM (inactive)
CC1=NN(c2cccc(Cl)c2)C2(SCC(=O)N2c2nc3ccccc3s2)/C1=C\c1ccc(N(C)C)cc1 (stereo unspecified)	> 100 µM (inactive)	88.7 µM (inactive)	> 100 µM (inactive)	42.2 µM (inactive)	58.9 µM (inactive)	27.9 µM (inactive)	> 100 µM (inactive)	93.5 µM (inactive)	21.8 µM (inactive)	19.4 µM (inactive)	17.5 µM (inactive)	> 100 µM (inactive)	> 100 µM (inactive)			56.8 µM (inactive)	> 100 µM (inactive)	> 100 µM (inactive)	> 100 µM (inactive)	23.9 µM (inactive)
